≈ marks a conversion by molar mass, not a printed value. Structures can show the parent of a compound that is named as a salt. Where two headings read alike, the source gives them in different places. Each block holds one molecule with its values, some of them ahead of it.
What was measured:
[1] = test system: completely removed guinea-pig tracheas; assay: Constrictive action of histamine di-hydrochloride on completely removed guinea-pig tracheas (in vitro); type: cell-based; conditions: for IC50: Cavia porcellus, read-out: ED50 (the source's name); for IC50 / ED50: Table I; for IC50 / % inhibition / ED50: histamine di-hydrochloride 5.10^-6 g/ml
Protocol: Thirty white guinea-pigs were used, from which the tracheas were removed, after they had been killed by ethereal anaesthesia. The tracheas were placed in a 50 ml bath of Krebs solution, suitably oxygenated and thermoregulated at a temperature of 37° C. The lower end of the trachea was closed while the upper end was connected to a polythene tube connected to a transducer for measuring volume differences connected to a polygraph, according to D. Jamieson's method 1962, Brit. J. Pharmacol. and Chemiotherapy, 19, 286, partially modified. Both the trachea and the polythene tube were filled with Krebs solution. The responses of the tracheas thus prepared to acetylcholine and histamine were investigated before and after the addition of the product to the bath.

[2] = test system: bronchospasm by acetylcholine chloride in guinea-pigs; assay: Bronchospasm by acetylcholine chloride (0.075 mg/kg i.v.) in guinea-pigs (Konzett and Roesler); type: in vivo, guinea-pig; conditions: for ED50: Cavia porcellus, iv
Protocol: Exp. Path. […] J. Pharmcol. 15, 290. Male guinea-pigs weighing 300-450 g were used under urethane anaesthesia (lg/kg i.p.). The animals were suitably prepared by insertion of a cannula in the jugular vein for intravenous administrations while the trachea was connected to an artificial respiration pump (Palmer) adapted for small animals, which was operated at a frequency of approximately 70 insufflations per minute. The pneumogram was recorded by means of a transducer on a polygraph (Battaglia-Rangoni).

[3] = test system: rabbits; assay: Mucolytic activity: mucoproduction in rabbits before and after oral treatment; type: in vivo, rabbit; conditions: for Mucoproduction (mg/h) M ± SD 4-0 h (before the treatment): baseline before treatment; for mucolytic activity (in words): rabbits, oral
Protocol: (b) Mucolytic activity of compound 1, doxophylline and bromohexyne hydrochloride For these tests the method described by Perry, W. F., Boyd, E. M., J. Pharmacol., 1941, 73, 65 and suitably modified by us was used. New Zealand-type, male, white rabbits weighing 2.8-3.5 kg. were used. Pre-operative preparation consisted of treatment with 9 mg/kg i.m. of a non-stupefying central analgesic ([…] local anaesthesia in the tracheal region with xylocaine (0.9 mg/kg - 1% solution). The surgical operation commenced 15-20 minutes after the pharmacological pre-treatment. The trachea was exposed and a hole approximately 5-6 mm in diameter was made in its ventral side. The trachea was then introduced into the lower arm of a three-way polypropylene cannula, which had been cut suitably, longitudinally so as to connect the hole made in the trachea with the aperture of the third arm (vertical) of the cannula, and thus put it into communication with the outside. Thus, the cannula surrounded the outside of the trachea and was fixed "in loco" with sterile surgical silk thread. A polypropylene container was attached to the vertical arm of the cannula for collecting the mucous (capacity approximately 2 ml), and the wound was then sutured. The tracheal mucous was collected for four hours before the oral administration of the substance under test and for four hours after the treatment.

[4] = in vivo; conditions: po
Protocol: The products were administered in a 0.5% aqueous suspension of carboxymethylcellulose at a concentration of 1 ml/100 g of body weight.

[5] = General statements on side effects, habituation, toxicity and therapeutic index; conditions: among compounds (1)-(4)
[6] = legend of FIG. 2, unit inferred, read-out: ED 50

IC50 [1]: 837 µg/mL (≈ 2680 µM)
SMILES: Cn1c(=O)c2c(ncn2CC2SCCCS2)n(C)c1=O [COMPOUND 2, 7-[2'-(1',3'-dithianyl)-methyl]-theophylline]
% inhibition ([1]; concentration 100 x 10^-6 g/ml): -12.0%
% inhibition ([1]; concentration 200 x 10^-6 g/ml): -18.5%
% inhibition ([1]; concentration 250 x 10^-6 g/ml): -26.5%
% inhibition ([1]; concentration 400 x 10^-6 g/ml): -38.5%

SMILES: Cn1c(=O)c2[nH]cnc2n(C)c1=O [AMINOPHYLLINE, aminophylline]
IC50 [1]: 206 µg/mL (≈ 1140 µM)
% inhibition ([1]; concentration 100 x 10^-6 g/ml): -10.9%
% inhibition ([1]; concentration 150 x 10^-6 g/ml): -18.7%
% inhibition ([1]; concentration 200 x 10^-6 g/ml): -46.15%
% inhibition ([1]; concentration 300 x 10^-6 g/ml): -79.4%
ED50 [2]: 4.97 mg/kg
ED50 ([2]; read-out: ED50 mg/kg i.v.): 4.97 mg/kg
% Variation in endobronchial pressure after administration of acetylcholine chloride (0,075 mg/kg i.v.) M ± SE ([2]; dose 0.5 mg/kg i.v.): 158.7 ± 24.6%
% inhibition vs. controls ([2]; dose 0.5 mg/kg i.v.): -12.5%
% Variation in endobronchial pressure after administration of acetylcholine chloride (0,075 mg/kg i.v.) M ± SE ([2]; dose 1 mg/kg i.v.): 135.7 ± 21.2%
% inhibition vs. controls ([2]; dose 1 mg/kg i.v.): -25.2%
% Variation in endobronchial pressure after administration of acetylcholine chloride (0,075 mg/kg i.v.) M ± SE ([2]; dose 5 mg/kg i.v.): 117.0 ± 17.4%
% inhibition vs. controls ([2]; dose 5 mg/kg i.v.): -35.5%
% Variation in endobronchial pressure after administration of acetylcholine chloride (0,075 mg/kg i.v.) M ± SE ([2]; dose 10 mg/kg i.v.): 49.9 ± 10.2%
% inhibition vs. controls ([2]; dose 10 mg/kg i.v.): -72.5%

SMILES: Cn1c(=O)c2c(ncn2CC2SCCS2)n(C)c1=O [COMPOUND 1, 7-[2'-(1',3'-dithiolanyl)-methyl]-theophylline]
IC50 [1]: 126 µg/mL (≈ 423 µM)
% inhibition ([1]; concentration 50 x 10^-6 g/ml): -17.2%
% inhibition ([1]; concentration 100 x 10^-6 g/ml): -32.5%
% inhibition ([1]; concentration 200 x 10^-6 g/ml): -62.5%
% inhibition ([1]; concentration 300 x 10^-6 g/ml): -95.0%
activity in vitro, ranking among the compounds ([1]; on the basis of the results obtained in vitro): the most active
ED50 ([2]; Table II, i.v., read-out: ED50 mg/kg i.v.): 0.99 mg/kg
ED50 [2, 6]: 0.996 mg/kg
% Variation in endobronchial pressure after administration of acetylcholine chloride (0,075 mg/kg i.v.) M ± SE ([2]; dose 0.1 mg/kg i.v.): 166.0 ± 22.4%
% inhibition vs. controls ([2]; dose 0.1 mg/kg i.v.): -8.5%
% Variation in endobronchial pressure after administration of acetylcholine chloride (0,075 mg/kg i.v.) M ± SE ([2]; dose 0.5 mg/kg i.v.): 145.1 ± 18.7%
% inhibition vs. controls ([2]; dose 0.5 mg/kg i.v.): -20.0%
% Variation in endobronchial pressure after administration of acetylcholine chloride (0,075 mg/kg i.v.) M ± SE ([2]; dose 1 mg/kg i.v.): 87.1 ± 15.2%
% inhibition vs. controls ([2]; dose 1 mg/kg i.v.): -52.0%
% Variation in endobronchial pressure after administration of acetylcholine chloride (0,075 mg/kg i.v.) M ± SE ([2]; dose 2 mg/kg i.v.): 51.7 ± 6.5%
% inhibition vs. controls ([2]; dose 2 mg/kg i.v.): -71.5%
antibronchospastic effect relative to aminophylline ([2]; from Table II): approximately five times that of aminophylline
antibronchospastic effect relative to doxophylline ([2]; from Table II): approximately twice that of doxophylline
Mucoproduction (mg/h) M ± SD 4-0 h (before the treatment) ([3]; group dosed 10 mg/kg os): 30.6 ± 9.43 mg/h
Mucoproduction (mg/h) M ± SD 4-0 h (before the treatment) ([3]; group dosed 30 mg/kg os): 27.2 ± 5.22 mg/h
Mucoproduction (mg/h) M ± SD 4-0 h (before the treatment) ([3]; group dosed 100 mg/kg os): 29.7 ± 4.95 mg/h
mucolytic activity compared with bromohexyne hydrochloride ([3]; compound at 100 mg/kg vs bromohexyne hydrochloride at 400 mg/kg): more active than bromohexyne hydrochloride at a dose of 400 mg/kg
% Variation with respect to its own base ([3]; dose 10 mg/kg os): +13.95%
Mucoproduction (mg/h) M ± SD 0-4 h (after the treatment) ([3]; dose 10 mg/kg os): 34.87 ± 10.25 mg/h
% Variation with respect to its own base ([3]; dose 30 mg/kg os): +26.95%
Mucoproduction (mg/h) M ± SD 0-4 h (after the treatment) ([3]; dose 30 mg/kg os): 34.53 ± 4.16 mg/h
% Variation with respect to its own base ([3]; dose 100 mg/kg os): +57.27%
Mucoproduction (mg/h) M ± SD 0-4 h (after the treatment) ([3]; dose 100 mg/kg os): 46.71 ± 8.82 mg/h
mucolytic activity (in words) [3]: dose-related mucolytic activity
LD50 at 480 h ([4]; mouse): 1510 mg/kg
LD50 at 480 h ([4]; rat): 1840 mg/kg
therapeutic index (in words) [5]: most favourable therapeutic index

SMILES: CC(=O)N[C@@H](CS)C(=O)O [N--acetylcysteine, reference compound]
Mucoproduction (mg/h) M ± SD 4-0 h (before the treatment) ([3]; group dosed 400 mg/kg os): 27.7 ± 5.50 mg/h
% Variation with respect to its own base ([3]; dose 400 mg/kg os): +16.21%
Mucoproduction (mg/h) M ± SD 0-4 h (after the treatment) ([3]; dose 400 mg/kg os): 32.19 ± 3.89 mg/h

IC50 [1]: 175 µg/mL (≈ 657 µM)
SMILES: Cn1c(=O)c2c(ncn2CC2OCCO2)n(C)c1=O [DOXOPHYLLINE, 7-[2'-(1',3'-dioxolanyl)-methyl]-theophylline, reference compound]
% inhibition ([1]; concentration 40 x 10^-6 g/ml): 0%
% inhibition ([1]; concentration 200 x 10^-6 g/ml): -54%
% inhibition ([1]; concentration 400 x 10^-6 g/ml): -78%
% inhibition ([1]; concentration 800 x 10^-6 g/ml): -100%
ED50 [2, 6]: 2.02 mg/kg
% Variation in endobronchial pressure after administration of acetylcholine chloride (0,075 mg/kg i.v.) M ± SE ([2]; dose 0.5 mg/kg i.v.): 153.8 ± 18.4%
% inhibition vs. controls ([2]; dose 0.5 mg/kg i.v.): -15.2%
% Variation in endobronchial pressure after administration of acetylcholine chloride (0,075 mg/kg i.v.) M ± SE ([2]; dose 1 mg/kg i.v.): 133.3 ± 14.8%
% inhibition vs. controls ([2]; dose 1 mg/kg i.v.): -26.5%
% Variation in endobronchial pressure after administration of acetylcholine chloride (0,075 mg/kg i.v.) M ± SE ([2]; dose 2 mg/kg i.v.): 88.5 ± 11.3%
% inhibition vs. controls ([2]; dose 2 mg/kg i.v.): -51.2%
% Variation in endobronchial pressure after administration of acetylcholine chloride (0,075 mg/kg i.v.) M ± SE ([2]; dose 4 mg/kg i.v.): 56.4 ± 8.8%
% inhibition vs. controls ([2]; dose 4 mg/kg i.v.): -68.9%
Mucoproduction (mg/h) M ± SD 4-0 h (before the treatment) ([3]; group dosed 100 mg/kg os): 29.8 ± 5.80 mg/h
% Variation with respect to its own base ([3]; dose 100 mg/kg os): +7.71%
Mucoproduction (mg/h) M ± SD 0-4 h (after the treatment) ([3]; dose 100 mg/kg os): 32.10 ± 8.26 mg/h
mucolytic activity (in words) [3]: no mucolytic activity

SMILES: Cn1c(=O)c2c(ncn2CC2SCC[S+]2[O-])n(C)c1=O (centres unmarked) [COMPOUND 4, 7-[2'-(1',3'-dithiolanyl)-methyl]-theophylline sulphoxide]
ED50 [1]: 2241.8 10^-6 g/ml
% inhibition ([1]; concentration 100 x 10^-6 g/ml): -7.5%
% inhibition ([1]; concentration 200 x 10^-6 g/ml): -12.5%
% inhibition ([1]; concentration 300 x 10^-6 g/ml): -20.4%
% inhibition ([1]; concentration 400 x 10^-6 g/ml): -27.8%

SMILES: Cn1c(=O)c2c(ncn2CC2SCC[S+]2[O-])n(C)c1=O (centres unmarked) [COMPOUND 3, 7-[2'-(1',3'-dithiolanyl)-methyl]-theophylline sulphoxide]
ED50 [1]: 530.0 10^-6 g/ml
% inhibition ([1]; concentration 100 x 10^-6 g/ml): -14.5%
% inhibition ([1]; concentration 200 x 10^-6 g/ml): -21.5%
% inhibition ([1]; concentration 300 x 10^-6 g/ml): -35.4%
% inhibition ([1]; concentration 400 x 10^-6 g/ml): -47.5%

SMILES: CN(Cc1cc(Br)cc(Br)c1N)C1CCCCC1 [BROMOHEXYNE, bromohexyne hydrochloride, reference compound]
Mucoproduction (mg/h) M ± SD 4-0 h (before the treatment) ([3]; group dosed 400 mg/kg os): 28.9 ± 7.82 mg/h
% Variation with respect to its own base ([3]; dose 400 mg/kg os): +34.98%
Mucoproduction (mg/h) M ± SD 0-4 h (after the treatment) ([3]; dose 400 mg/kg os): 39.01 ± 4.34 mg/h
